Data taken from US12344599B2, “Prodigiosin analogs and methods of use” (Institute For Cancer Research, priority 2016, dated 2025).

Columns and labels:
[1] = system: γ-H2AX in HT29 and SW480 cells; test: γ-H2AX DNA damage marker, western blot and immunofluorescence staining; format: cell-based, human
Description: After treatment, protein lysates were collected for Western blot analysis. A total of […] of protein was used for SDS-PAGE. After primary and secondary antibody incubations, the signal was detected by a chemiluminescence detection kit, imaged by Syngene (Imgen Technologies). Antibodies for PUMA (for IHC), p53 (Santa Cruz Biotechnology), caspase 8, cleaved caspase 8, caspase 9, caspase 3, cleavage PARP, eIF2α, p-eIF2α (Ser51), CHOP, ATF4, DR5, FOXO3a, p-FOXO3a (Ser253), NF-κB p65, p-NF-κB p65 (Ser536), c-Jun, p-c-Jun (Ser63), JNK, p-JNK (Thr183/Tyr185), PUMA (for WB), c-Myc, phosphor-S62-cMyc (Cell Signaling Technology), Noxa, p21 (Calbiochem), p73 (Bethyl laboratories Inc), Ran (BD Biosciences), […] (Sigma).
A total of 5×10^4 cells were seeded in each well of 8-well chamber slides. After treatment, cells were fixed and permeabilized by methanol:acetone (1:1) for 20 minutes at −20° C. Fixed cells were blocked by 2% BSA for 1 hour, followed by primary antibody incubation for 1 hours and Cy3-conjuated secondary antibody incubation for 1 hour at room temperature. After washing, cells were stained with DAPI for 10 minutes at room temperature. Cells were mounted, and examined by fluorescence microscopy.
DNA damage induces the p53 pathway and leads to cell apoptosis. To study whether the p53 pathway restoration by compound PG3-Oc is due to DNA damage, the uptake and localization of PG3-Oc was investigated in cells. PG3-Oc and prodigiosin are red fluorescent compounds, and their localization in live cells can be monitored by fluorescence microscopy. PG3-Oc and prodigiosin rapidly entered cells within 2 hours of incubation and remained in the cytosol at the 8-hour time point in HT29 and SW480 cells (FIG. 46). […] Baldino, et al. reported that prodigiosin localized to the cytoplasm, but not within the nucleus, and no γ-H2AX signal was detected in A549 cancer cells (Baldino et al., Bioorg Med Chem Lett, 2006, 16, 701-704). […]

[2] = system: PANC-1; test: CellTiterGlo cell viability assay, PANC-1; format: cell-based; details: Homo sapiens; PANC-1, pancreatic cancer, p53 R273H, 72 hours
Description: • 1) Cell lines: HT29, SW480, DLD-1, HCT116, and p53-null HCT116 cells, H1975, MDA-MD-231, U251, FaDu, CAL-27, PANC-1, Aspc-1, and MRC5 were obtained from the ATCC and cultured as recommended. Cells were regularly authenticated by bioluminescence, growth, and morphologic observation. The cells were routinely examined for Mycoplasma and all cell lines underwent STR authentication. • 2) Western blotting: After treatment, protein lysates were collected for Western blot analysis. 15 μg of protein was used for SDS-PAGE. After primary and secondary antibody incubations, the signal was detected by chemiluminescent detection kit, imaged by Syngene (Imgen Technologies). […] The cell viability was assessed by CellTiterGlo bioluminescent cell proliferation assay (Promega), following the manufacturer's protocol. Bioluminescence imaging was measured using the IVIS imager. Percentage of cell viability (mean±SEM) at each dose was calculated against the respective DMSO control. The IC50 values were determined from the sigmoidal dose-response curves using GraphPad Prims4. • 4) Caspase activity assay: Cells were seeded in 96-well plate (1×10^4 cells/well). […] The caspase 3/7 activity was assessed by Caspase-Glo® 3/7 Assay kit (Promega), following the manufacturer's protocol. Bioluminescence imaging was measured using the IVIS imager. […]

CCCCCCCCOC(=O)CCc1c(C)[nH]c(/C=C2\N=C(c3ccc[nH]3)C=C2OC)c1C [PG3-Oc, Octyl (Z)-3-(5-((4′-methoxy-1H,5′H-[2,2′-bipyrrol]-5′-ylidene)methyl)-2,4-dimethyl-1H-pyrrol-3-yl)propanoate]
induction of 65-H2AX (DNA damage marker) / foci formation [1]: did not induce | IC50 [2]: 136 nM
